Reference: PMC12557437, “Research towards selective inhibition of the CLK3 kinase” (Beilstein Journal of Organic Chemistry, 2025)

Experiments:
Experiment in all cases: primary screening, short panel of mammalian kinases
Format in all cases: biochemical
Hs_CDK5/p25 = Hs_CDK5/p25 (Homo sapiens, UniProt Q00535); details: ATP 10 µM, means, n = 2, read-out: Residual kinase activity Hs_CDK5/p25
Text: (§1) Our molecules have been submitted first to a primary screening against a panel of eight disease-related kinases: five members of the CMGC (for CDK, MAPK, GSK3, and CLK) group (CDK5/p25, CDK9/CyclinT, GSK3β, CLK1 and DYRK1A), one CAMK (calmodulin/calcium regulated kinase PIM1), one CK1 (the casein kinase CK1ε), and haspin as a […] kinase.
(§2) Figure 4 Primary evaluation of the inhibition of the new quinazolines against a short panel of mammalian kinases. Residual kinase activities are expressed in % of maximal activity, i.e., measured in the absence of inhibitor but with an equivalent dose of DMSO (solvent of the tested compounds). ATP concentration used in the kinase assays was 10 µM (values are means, n = 2). Kinases are from human origin (Homo sapiens) except CLK1 (from Mus musculus) and DYRK1A (from Rattus norvegicus). […]

Hs_CDK9/CyclinT = Hs_CDK9/CyclinT (Homo sapiens, UniProt P50750); details: ATP 10 µM, means, n = 2, read-out: Residual kinase activity Hs_CDK9/CyclinT
Hs_CDK9/CyclinT, sequence (P50750 whole entry): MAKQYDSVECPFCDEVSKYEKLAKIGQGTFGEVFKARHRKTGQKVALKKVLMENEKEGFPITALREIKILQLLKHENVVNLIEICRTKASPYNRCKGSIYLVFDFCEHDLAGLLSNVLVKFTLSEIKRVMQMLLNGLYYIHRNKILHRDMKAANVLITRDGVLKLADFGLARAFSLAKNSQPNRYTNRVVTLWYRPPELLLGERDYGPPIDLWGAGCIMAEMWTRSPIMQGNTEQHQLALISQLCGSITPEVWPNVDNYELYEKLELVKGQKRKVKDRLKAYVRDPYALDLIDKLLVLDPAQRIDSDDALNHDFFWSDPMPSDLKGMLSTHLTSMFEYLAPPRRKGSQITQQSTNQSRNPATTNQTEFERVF
Hs_CDK9/CyclinT, sequence (O60563 whole entry partner): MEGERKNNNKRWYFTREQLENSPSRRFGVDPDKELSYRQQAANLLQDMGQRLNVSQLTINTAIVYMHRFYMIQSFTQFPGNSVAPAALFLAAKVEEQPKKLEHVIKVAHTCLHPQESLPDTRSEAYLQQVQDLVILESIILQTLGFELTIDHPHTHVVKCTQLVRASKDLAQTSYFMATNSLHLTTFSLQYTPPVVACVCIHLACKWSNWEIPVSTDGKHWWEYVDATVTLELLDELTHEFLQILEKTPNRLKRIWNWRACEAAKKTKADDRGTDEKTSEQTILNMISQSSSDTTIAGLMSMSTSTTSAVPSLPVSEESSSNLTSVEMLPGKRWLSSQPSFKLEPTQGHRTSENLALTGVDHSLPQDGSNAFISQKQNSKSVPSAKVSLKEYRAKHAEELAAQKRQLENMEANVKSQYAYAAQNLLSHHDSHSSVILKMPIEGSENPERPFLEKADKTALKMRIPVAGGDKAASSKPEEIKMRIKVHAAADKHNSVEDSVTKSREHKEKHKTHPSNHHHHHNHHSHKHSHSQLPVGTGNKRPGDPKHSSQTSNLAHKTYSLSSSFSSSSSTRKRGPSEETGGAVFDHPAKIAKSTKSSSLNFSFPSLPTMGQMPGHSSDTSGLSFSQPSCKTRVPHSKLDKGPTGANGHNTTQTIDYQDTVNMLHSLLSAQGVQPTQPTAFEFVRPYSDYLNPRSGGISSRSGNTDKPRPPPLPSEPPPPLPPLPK
Text: as §1, §2

Rn_DYRK1A = Rn_DYRK1A (Rattus norvegicus, UniProt Q63470); details: ATP 10 µM, means, n = 2, read-out: Residual kinase activity Rn_DYRK1A
Text: as §1, §2

Hs_CDK5/p25, sequence (Q00535 whole entry): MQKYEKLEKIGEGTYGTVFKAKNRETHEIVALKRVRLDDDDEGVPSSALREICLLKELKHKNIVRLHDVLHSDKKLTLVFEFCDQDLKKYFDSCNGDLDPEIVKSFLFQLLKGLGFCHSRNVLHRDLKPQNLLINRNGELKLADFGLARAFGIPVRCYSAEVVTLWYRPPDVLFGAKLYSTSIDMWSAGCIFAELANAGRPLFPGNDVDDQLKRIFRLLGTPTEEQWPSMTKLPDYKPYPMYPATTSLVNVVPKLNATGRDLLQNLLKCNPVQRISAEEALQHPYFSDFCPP
Hs_CDK5/p25, sequence (Q15078 99-307 partner limits assumed): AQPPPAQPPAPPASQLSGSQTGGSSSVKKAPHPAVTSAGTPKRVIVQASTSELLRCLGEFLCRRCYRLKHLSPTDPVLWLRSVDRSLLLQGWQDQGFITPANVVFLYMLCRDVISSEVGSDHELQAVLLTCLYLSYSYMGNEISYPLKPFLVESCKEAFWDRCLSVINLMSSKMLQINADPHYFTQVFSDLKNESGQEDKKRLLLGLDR

## Cc1ccc(-n2cc(COc3cccc4cnc(Nc5cc(Cl)cc(-c6cccc(C(=O)O)c6)c5)nc34)nn2)c([N+](=O)[O-])c1 [Compound 13b]
Hs_CDK5/p25; compound 1 μM
  remaining activity at 1 µM: 92%
Hs_CDK5/p25; compound 10 μM
  remaining activity at 10 µM: 37%
Hs_CDK9/CyclinT; compound 1 μM
  remaining activity at 1 µM: 83%
Hs_CDK9/CyclinT; compound 10 μM
  remaining activity at 10 µM: 47%
Rn_DYRK1A; compound 1 μM
  remaining activity at 1 µM: 92%
Rn_DYRK1A; compound 10 μM
  remaining activity at 10 µM: 62%
